Legend:
[1] = test system: gout induced by intra-articular uric acid at 20% in rats; assay: PIFIR model (pain-induced functional impairment, uric acid 20%), analgesic activity after topical administration; type: in vivo, Female Wistar rats; conditions: for ability to walk and visible adverse effects: doses used (3.2-31.6 mg/Kg topical), observation period of 5 h
Source text: Female Wistar rats [Crl:(WI)BR] were employed with a weight of between 180 and 200 g. All the experimental procedures followed the recommendations of the committee for Research and Ethical Issues of the International Association for the Study of Pain and the Guidelines on Ethical Standards for Investigations of Experiment Pain in Animals. The number of animals for experimentation was kept to a minimum: 6 rats per experimental point. The animals were kept in a room with alternating dark/light cycles.
Twelve hours before the experiments, the fur that covers the rats' major muscle group that covers the femur (4 cm×4 cm) on the outer side of the hind right paw was very carefully clipped with some scissors, leaving the fur cut to a maximum length of 2 mm and taking care not to injure the rats' skin. Food was also removed at this moment, leaving them only free access to water. All the experiments were performed during the light phase, with the animals only being used once.
The analgesic effects are assessed employing the PIFIR model, in other words, the rats were anesthetized in a glass desiccator, saturated with ether vapor. The gout was induced by applying an intra-articular injection (i.a.) of 0.05 ml of uric acid suspended in mineral oil in the right hind member, exactly in the femur-tibia-kneecap joint. A 1 mL glass syringe with a 4-mm-long No. 22 needle is used for the intra-articular injection. Immediately afterwards, an electrode is attached to each hind paw in the middle of the plantar calluses. The rats were left to recover from the anesthesia and placed in a 30-cm-diameter rotary stainless-steel cylinder. The cylinder was turned at 4 r.p.m., forcing the rats to walk for 3 min every half hour, for a total of 5 hours. The variable measured was the contact time of each one of the rats' hind paws in the cylinder. When the electrode makes contact with the cylinder a circuit is closed and the ratio between the contact time of the injured paw in respect of the uninjured one was recorded on a computer.
The temporary courses of each treatment for 5 continuous hours were determined, employing an “n” of 6 rats per treatment. For the purpose of this study, inducing harm in the experimental animals was unavoidable. However, care was taken to avoid causing unnecessary suffering to the animals. At the end of the experimental determinations, the rats were immediately sacrificed.
From the aforementioned experimental model, the results obtained from the analgesic assessment of the combination are expressed as a Functionality Index percentage (FI %). This FI % is the ratio obtained by dividing the contact time of the limb with uric acid by the contact time of the limb against of the same rats, and multiplying the result by 100. The temporary course (TC) curves are built by plotting FI % or Dysfunction against time (h). The analgesic or antinociceptive effect was estimated as the recuperation of FI %. […] All the values plotted in the figures correspond to the mean±error standard for 6 animals.

[2] = cited from earlier work
[3] = cited from earlier work; remark: listed apart in the source
[4] = 31.6 mg/Kg topical administration

Row | SMILES | maximum effect (Emax), recovery of Functionality Index percentage (FI %) ([1]; 31.6 mg/Kg topical administration, rats, uric acid 20%, 5 h observation, mean ± standard error, n=6) [%] | analgesic effects in temporary courses (in words) ([1]; 3.16, 5.62, 10.0, 17.78 and 31.62 mg/Kg topical administration) | ability to walk and visible adverse effects [1] | time over which the concentration in the top skin layers slowly declines ([2]; after the drug product is removed from the skin) | amount of aceclofenac absorbed, of the total dose applied ([2]; applied to the skin) [%] | amount retained on the top layers of skin, of the dose applied ([2]; applied to the skin) [%] | analgesic effects in temporary course (in words) [1, 4] | time point of the maximum effect [1, 4] [h] | analgesic effects in temporary courses (in words) ([1]; 3.16, 10.0 and 17.8 mg/Kg topical administration) | solubility in water [3]
1 | O=C(O)COC(=O)Cc1ccccc1Nc1c(Cl)cccc1Cl [aceclofenac, (2-{2-[(2,6-Dichlorophenyl)amino]phenyl}acetoxy) acetic acid] | 42.0±6.9 | does show analgesic effects | did not affect the ability of the rats to walk during the observation period or cause any visible adverse effect | more than 16 hours | 13 | 6 to 9 |  |  |  | 
2 | C[C@H]1C[C@H]2[C@@H]3CCC4=CC(=O)C=C[C@]4(C)[C@@]3(F)[C@@H](O)C[C@]2(C)[C@@]1(O)C(=O)CO [betamethasone, (11ß,16ß)-9-fluoro-11,17,21-trihydroxy-16-methylpregna-1,4-diene-3,20-dione] |  |  | did not affect the ability of the rats to walk during the observation period or cause any visible adverse effect |  |  |  | modest analgesic effects | 3.5 | does not generate analgesic effects | insoluble in water

— patent publication US12290526B2 (priority 2018, dated 2025)
